This test deals with ROCK2 (Homo sapiens, UniProt O75116). Kind of test: ROCK assay: phosphorylation of FITC peptide substrate, LABCHIP 3000 mobility shift. It counts as biochemical. To be noted: 5 μM ATP, 1.5 μM peptide substrate; read-out: ROCK2 Activity (ROCK IC50 range). The method, then: The effectiveness of compounds of the present invention as ROCK inhibitors can be determined in a 30 μL assay containing 20 mM HEPES, pH 7.5, 20 mM MgCl2, 0.015% Brij-35, 4 mM DTT, 5 μM ATP and 1.5 μM peptide substrate (FITC-AHA-AKRRRLSSLRA-OH). Compounds were dissolved in DMSO so that the final concentration of DMSO was <2%, and the reaction was initiated with Rho kinase variants. After incubation, the reaction was terminated by the addition of EDTA and the phosphorylated and non-phosphorylated peptides separated using a LABCHIP® 3000 Reader (Caliper Life Sciences). […] Compounds were tested in dose-response format, and the inhibition of kinase activity was calculated at each concentration of compound. The inhibition data were fit using a curve-fitting program to determine the IC50; i.e., the concentration of compound required to inhibit 50% of kinase activity.
Representative Examples were tested in the ROCK assay described above and found having ROCK inhibitory activity.

This note sets out measurements from patent US9902702B2, “Spirocycloheptanes as inhibitors of rock” (BRISTOL-MYERS SQUIBB COMPANY, priority 2014, dated 2018).

Molecules are shown by their SMILES. Counter-ions that a name gives are not always drawn.

Chain of ROCK2 (O75116 whole entry, species assumed): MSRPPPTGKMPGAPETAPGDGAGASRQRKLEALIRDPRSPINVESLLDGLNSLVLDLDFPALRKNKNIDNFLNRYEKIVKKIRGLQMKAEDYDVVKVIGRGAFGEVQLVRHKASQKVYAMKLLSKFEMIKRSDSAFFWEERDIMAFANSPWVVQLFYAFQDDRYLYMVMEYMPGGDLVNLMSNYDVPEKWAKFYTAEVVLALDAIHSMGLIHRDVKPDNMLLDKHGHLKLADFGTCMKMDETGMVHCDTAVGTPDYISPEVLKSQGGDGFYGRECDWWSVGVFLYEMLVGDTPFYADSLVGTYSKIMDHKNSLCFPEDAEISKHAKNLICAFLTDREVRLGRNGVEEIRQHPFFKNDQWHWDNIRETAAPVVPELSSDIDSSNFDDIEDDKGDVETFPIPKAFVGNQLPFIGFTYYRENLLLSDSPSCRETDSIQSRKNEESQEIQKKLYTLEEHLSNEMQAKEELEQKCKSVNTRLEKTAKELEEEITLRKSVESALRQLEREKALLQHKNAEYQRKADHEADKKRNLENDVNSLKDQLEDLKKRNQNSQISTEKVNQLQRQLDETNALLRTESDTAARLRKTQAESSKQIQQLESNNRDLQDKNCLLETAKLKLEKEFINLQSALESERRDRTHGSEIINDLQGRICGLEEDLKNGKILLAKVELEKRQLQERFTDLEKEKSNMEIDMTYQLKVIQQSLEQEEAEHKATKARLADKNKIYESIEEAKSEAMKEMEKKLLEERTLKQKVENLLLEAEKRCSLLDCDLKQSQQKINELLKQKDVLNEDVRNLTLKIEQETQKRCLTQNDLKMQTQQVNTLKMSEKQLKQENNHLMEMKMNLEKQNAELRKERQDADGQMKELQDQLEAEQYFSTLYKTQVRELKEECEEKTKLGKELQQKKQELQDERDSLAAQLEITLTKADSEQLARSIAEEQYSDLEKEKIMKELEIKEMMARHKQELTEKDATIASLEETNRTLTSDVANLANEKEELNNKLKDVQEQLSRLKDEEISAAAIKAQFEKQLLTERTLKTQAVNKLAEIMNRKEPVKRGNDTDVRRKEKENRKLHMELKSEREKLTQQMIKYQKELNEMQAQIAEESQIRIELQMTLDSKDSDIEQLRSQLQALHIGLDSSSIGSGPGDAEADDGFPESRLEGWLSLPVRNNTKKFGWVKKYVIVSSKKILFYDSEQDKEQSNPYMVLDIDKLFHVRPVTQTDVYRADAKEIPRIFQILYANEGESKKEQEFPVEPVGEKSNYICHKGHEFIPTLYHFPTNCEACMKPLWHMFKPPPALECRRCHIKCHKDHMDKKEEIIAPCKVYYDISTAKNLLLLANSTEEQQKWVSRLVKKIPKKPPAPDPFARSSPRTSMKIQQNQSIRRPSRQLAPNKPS

As to `CC(C)(O)COc1ccc2c(C(=O)NC3CC4(C3)CC(c3n[nH]c(=O)n5cccc35)C4)cnn2c1` (stereo not drawn) [Example 279, 6-(2-hydroxy-2-methylpropoxy)-N-(6-(4-oxo-3,4-dihydropyrrolo[1,2-d][1,2,4]triazin-1-yl)spiro[3.3]heptan-2-yl)pyrazolo[1,5-a]pyridine-3-carboxamide, TFA], the IC50 is 2.01 to 5 nM.

Consider `Cn1cc(-c2ccc3c(C(=O)NC4CC5(C4)CC(c4n[nH]c(=O)c6ccccc46)C5)cnn3c2)c(C(F)(F)F)n1` [Example 223, 6-(1-methyl-3-(trifluoromethyl)-1H-pyrazol-4-yl)-N-((aR)-6-(4-oxo-3,4-dihydrophthalazin-1-yl)spiro[3.3]heptan-2-yl)pyrazolo[1,5-a]pyridine-3-carboxamide], for which the half-inhibitory concentration (IC50) is 0.2 to 2 nM.

`[H][C@]1(c2n[nH]c(=O)c3ccccc32)C[C@]2(C[C@@H](NC(=O)c3ccc(Br)cc3)C2)C1` (stereo partly drawn) [Example 331, 4-bromo-N-((aR)-6-(4-oxo-3,4-dihydrophthalazin-1-yl)spiro[3.3]heptan-2-yl)benzamide]: the IC50 was in the range of 5.1 to 15 nM.

For `COC(=O)N1CCc2c(C(=O)N[C@H]3CC4(C3)C[C@H](c3n[nH]c(=O)c5ccccc53)C4)csc2C1` (stereo partly drawn) [Example 275, methyl 3-(((aR)-6-(4-oxo-3,4-dihydrophthalazin-1-yl)spiro[3.3]heptan-2-yl)carbamoyl)-4,5-dihydrothieno[2,3-c]pyridine-6(7H)-carboxylate], the half-inhibitory concentration (IC50) lay in the range of 5.1 to 15 nM.

As to `[H][C@]1(c2n[nH]c(=O)c3ccccc32)C[C@]2(C[C@@H](NC(=O)c3cnc4cc(OC(C)C)ccn34)C2)C1` (stereo partly drawn) [Example 437, 7-isopropoxy-N-((aR)-6-(4-oxo-3,4-dihydrophthalazin-1-yl)spiro[3.3]heptan-2-yl)imidazo[1,2-a]pyridine-3-carboxamide], the IC50 was 2.01 to 5 nM.

Consider `COc1ccccc1-n1nnc(C(=O)NC2CC3(C2)CC(c2n[nH]c(=O)c4ccccc24)C3)c1C` [Example 117, 1-(2-methoxyphenyl)-5-methyl-N-((aR)-6-(4-oxo-3,4-dihydrophthalazin-1-yl)spiro[3.3]heptan-2-yl)-1H-1,2,3-triazole-4-carboxamide], for which the IC50 lay within 15.1 to 100 nM.

With `[H][C@]1(c2n[nH]c(=O)c3ccccc32)C[C@]2(C[C@@H](NC(=O)c3ccc(-c4cn[nH]c4)c(C#N)c3)C2)C1` (stereo partly drawn) [Example 417, 3-cyano-N-((aR)-6-(4-oxo-3,4-dihydrophthalazin-1-yl)spiro[3.3]heptan-2-yl)-4-(1H-pyrazol-4-yl)benzamide], the IC50 fell in the range of 0.2 to 2 nM.

As to `O=C(NC1CC2(C1)CC(c1n[nH]c(=O)c3ccccc13)C2)N1CCc2cccnc21` [Example 256, N-((aR)-6-(4-oxo-3,4-dihydrophthalazin-1-yl)spiro[3.3]heptan-2-yl)-2,3-dihydro-1H-pyrrolo[2,3-b]pyridine-1-carboxamide], the IC50 fell in the range of 15.1 to 100 nM.

As to `O=C(NC1CC2(C1)CC(c1n[nH]c(=O)c3ccccc13)C2)c1cnn2c(C(F)(F)F)c(OCc3ccccc3)ccc12` (stereo not drawn) [Example 141, 6-(benzyloxy)-N-((αR)-6-(4-oxo-3,4-dihydrophthalazin-1-yl)spiro[3.3]heptan-2-yl)-7-(trifluoromethyl)pyrazolo[1,5-α]pyridine-3-carboxamide], the IC50 fell in the range of 5.1 to 15 nM.

In the case of `COCC(O)COc1ccn2ncc(C(=O)NC3CC4(C3)CC(c3n[nH]c(=O)c5ccccc35)C4)c2c1` [Example 75, 5-(2-hydroxy-3-methoxypropoxy)-N-((aR)-6-(4-oxo-3,4-dihydrophthalazin-1-yl)spiro[3.3]heptan-2-yl)pyrazolo[1,5-a]pyridine-3-carboxamide], the 50% inhibitory concentration (IC50) was in the range of 15.1 to 100 nM.

In the case of `[H][C@]1(c2n[nH]c(=O)c3ccccc32)C[C@]2(C[C@@H](NC(=O)c3cc4cccc(C(F)(F)F)c4[nH]3)C2)C1` (stereo partly drawn) [Example 332, N-((aR)-6-(4-oxo-3,4-dihydrophthalazin-1-yl)spiro[3.3]heptan-2-yl)-7-(trifluoromethyl)-1H-indole-2-carboxamide], the half-maximal inhibitory concentration (IC50) lay within 0.2 to 2 nM.

As to `CC(C)(O)Cn1cc(C(=O)NC2CC3(C2)CC(c2n[nH]c(=O)c4ccccc24)C3)c2cccnc21` [Example 66, 1-(2-hydroxy-2-methylpropyl)-N-((aR)-6-(4-oxo-3,4-dihydrophthalazin-1-yl)spiro[3.3]heptan-2-yl)-1H-pyrrolo[2,3-b]pyridine-3-carboxamide], the 50% inhibitory concentration (IC50) was in the range of 5.1 to 15 nM.

Regarding `[H][C@]1(c2n[nH]c(=O)c3ccccc32)C[C@]2(C[C@@H](N(C)C(=O)c3nn(C)c4ccccc34)C2)C1` (stereo partly drawn) [Example 266, N,1-dimethyl-N-((aR)-6-(4-oxo-3,4-dihydrophthalazin-1-yl)spiro[3.3]heptan-2-yl)-1H-indazole-3-carboxamide], the IC50 was in the range of 100 to 2100 nM.

On to `COc1cccc(-n2cc(C(=O)NC3CC4(C3)CC(c3n[nH]c(=O)c5ccccc35)C4)nn2)c1` [Example 116, 1-(3-methoxyphenyl)-N-((aR)-6-(4-oxo-3,4-dihydrophthalazin-1-yl)spiro[3.3]heptan-2-yl)-1H-1,2,3-triazole-4-carboxamide], for which the half-inhibitory concentration (IC50) is 2.01 to 5 nM.

With `[H][C@]1(c2n[nH]c(=O)c3ccccc32)C[C@]2(C[C@@H](NC(=O)c3cnc4cc(N(C)CCO)ccn34)C2)C1` (stereo partly drawn) [Example 396, 7-((2-hydroxy-ethyl)(methyl)amino)-N-((aR)-6-(4-oxo-3,4-dihydrophthalazin-1-yl)spiro[3.3]heptan-2-yl)imidazo[1,2-a]pyridine-3-carboxamide], the IC50 lay within 2.01 to 5 nM.

Take `O=C(NC1CC2(C1)CC(c1n[nH]c(=O)c3ccccc13)C2)N1CCc2cc(-c3cnn(C4CCOC4)c3)ccc21` [Example 243, N-((aR)-6-(4-oxo-3,4-dihydrophthalazin-1-yl)spiro[3.3]heptan-2-yl)-5-(1-(tetrahydrofuran-3-yl)-1H-pyrazol-4-yl)indoline-1-carboxamide]: the half-maximal inhibitory concentration (IC50) lay within 2.01 to 5 nM.

With `COc1ccc2c(c1)CN(C(=O)NC1CC3(C1)CC(c1n[nH]c(=O)c4ccccc14)C3)C2` [Example 263, 5-methoxy-N-((aR)-6-(4-oxo-3,4-dihydrophthalazin-1-yl)spiro[3.3]heptan-2-yl)isoindoline-2-carboxamide], the concentration for half-maximal inhibition (IC50) is 5.1 to 15 nM.

For the compound `O=C(NC1CC2(C1)CC(c1n[nH]c(=O)c3ccccc13)C2)c1ccn(CC2CC2)n1` [Example 23, 1-(cyclopropylmethyl)-N-[(aR)-6-(4-oxo-3,4-dihydrophthalazin-1-yl)spiro[3.3]heptan-2-yl]-1H-pyrazole-3-carboxamide], the half-inhibitory concentration (IC50) was in the range of 5.1 to 15 nM.

As for `O=C(NC1CC2(C1)CC(c1n[nH]c(=O)c3ccccc13)C2)N1CCc2cc(-c3cnn(C4CCOCC4)c3)ccc21` [Example 240, N-((aR)-6-(4-oxo-3,4-dihydrophthalazin-1-yl)spiro[3.3]heptan-2-yl)-5-(1-(tetrahydro-2H-pyran-4-yl)-1H-pyrazol-4-yl)indoline-1-carboxamide], the IC50 was 2.01 to 5 nM.

On to `[H][C@]1(c2n[nH]c(=O)c3ccccc32)C[C@]2(C[C@@H](NC(=O)c3ccc(-c4cn[nH]c4)cc3OC)C2)C1` (stereo partly drawn) [Example 419, 2-methoxy-N-((aR)-6-(4-oxo-3,4-dihydrophthalazin-1-yl)spiro[3.3]heptan-2-yl)-4-(1H-pyrazol-4-yl)benzamide], for which the IC50 was in the range of 2.01 to 5 nM.

As for `O=C(NC1CC2(C1)CC(c1n[nH]c(=O)c3ccccc13)C2)c1ccn(CC(F)(F)F)n1` (stereo not drawn) [Example 7, N-[6-(4-oxo-3,4-dihydrophthalazin-1-yl)spiro[3.3]heptan-2-yl]-1-(2,2,2-trifluoroethyl)-1H-pyrazole-3-carboxamide], the IC50 is 5.1 to 15 nM.

As to `CC(=O)c1ccc2c(C(=O)N[C@H]3CC4(C3)C[C@H](c3n[nH]c(=O)c5ccccc53)C4)cnn2c1` (stereo partly drawn) [Example 214, 6-acetyl-N-((aR)-6-(4-oxo-3,4-dihydrophthalazin-1-yl)spiro[3.3]heptan-2-yl)pyrazolo[1,5-a]pyridine-3-carboxamide], the 50% inhibitory concentration (IC50) was 2.01 to 5 nM.

Turning to `O=C(NC1CC2(C1)CC(c1n[nH]c(=O)c3ccccc13)C2)c1cnn2cc(CCCO)ccc12` [Example 195, 6-(3-hydroxypropyl)-N-((aR)-6-(4-oxo-3,4-dihydrophthalazin-1-yl)spiro[3.3]heptan-2-yl)pyrazolo[1,5-a]pyridine-3-carboxamide], the half-maximal inhibitory concentration (IC50) is 5.1 to 15 nM.

On to `[H][C@]1(c2n[nH]c(=O)c3ccccc32)C[C@]2(C[C@@H](NC(=O)c3ccc(-n4ccnc4)cc3)C2)C1` (stereo partly drawn) [Example 359, 4-(1H-imidazol-1-yl)-N-((aR)-6-(4-oxo-3,4-dihydrophthalazin-1-yl)spiro[3.3]heptan-2-yl)benzamide], for which the IC50 fell in the range of 100 to 2100 nM.

Turning to `COc1c(C(=O)NC2CC3(C2)CC(c2n[nH]c(=O)c4ccccc24)C3)nc2ccccn12` (stereo not drawn) [Example 124, 3-methoxy-N-((αR)-6-(4-oxo-3,4-dihydrophthalazin-1-yl)spiro[3.3]heptan-2-yl)imidazo[1,2-α]pyridine-2-carboxamide], the IC50 was in the range of 15.1 to 100 nM.

As for `O=C(NC1CC2(C1)CC(F)(c1n[nH]c(=O)c3ccccc13)C2)c1cnn2ccccc12` (stereo not drawn) [Example 164, N-(6-fluoro-6-(4-oxo-3,4-dihydrophthalazin-1-yl)spiro[3.3]heptan-2-yl)pyrazolo[1,5-α]pyridine-3-carboxamide], the half-maximal inhibitory concentration (IC50) was 15.1 to 100 nM.

Consider `[2H]C([2H])([2H])n1cc(-c2ccc3c(c2)CN(C(=O)NC2CC4(C2)CC(c2n[nH]c(=O)c5ccccc25)C4)C3)cn1` [Example 253, 5-(1-(^2H3)methyl-1H-pyrazol-4-yl)-N-((aR)-6-(4-oxo-3,4-dihydrophthalazin-1-yl)spiro[3.3]heptan-2-yl)isoindoline-2-carboxamide], for which the IC50 was in the range of 5.1 to 15 nM.
